Laboratory results: patent publication US9114150B2, “Stable aqueous compositions comprising bioactive creatine species” (JHO INTELLECTUAL PROPERTY HOLDINGS, LLC, priority 2008, dated 2015)
Each block holds one compound with its values, some of them ahead of it.

Experiment: Stability study of aqueous solutions (0.250 mg/mL) assayed by HPLC at periodic intervals for 60 days
Assay type: physicochemical
Conditions: for Creatinine in solution (HPLC assay): 0.250 mg/mL; for Prepared substance remaining in solution (HPLC assay): buffer, 0 days, 0.25 mg/mL; for Fraction converted to creatinine: aqueous media
Method: Creatinol-O-Phospate Solution: A batch of pure water or distilled water is put in a container, adjusted to a prescribed of pH 3 or pH 7 with a normal buffer and buffer salts, and heated to a temperature of 20° to 99° C. To 100 parts by weight of the warm water is added 0.1 to 0.3 parts by weight of the Creatinol-O-Phophate (COP) which is dissolved by stirring. The pH is not particularly limited but is desirably not higher than pH 12 taking the physiological influences of the gastrointestinal tracts into consideration.
They were stored at room temperature (25 C, 77 F), at refrigerator temperature (4 C, 39 F), and at elevated temperature (40 C, 104 F) in glass scintillation vials. These samples were assayed by HPLC at periodic intervals for 60 days and evaluated relative to Standard regression curves of known concentrations of the actives and of creatinine, the primary known degradation product of creatine.

[1] = prepared at pH 3.0, 25° C., 39 Days
[2] = prepared at pH 3.0, 25° C., 60 days
[3] = prepared at pH 3.0, 25° C., INITIAL
[4] = prepared at pH 3.0, 40° C., 39 Days
[5] = prepared at pH 3.0, 40° C., 60 days
[6] = prepared at pH 3.0, 40° C., INITIAL
[7] = prepared at pH 7.0, 40° C., 39 Days
[8] = prepared at pH 7.0, 40° C., 60 days
[9] = prepared at pH 7.0, 40° C., INITIAL

Stability by increase in creatinine levels over time (FIG. 1, in words): stable and resistant to decomposition
Stability in aqueous solution (in words): stable
Creatinine in solution (HPLC assay) (pH 3.0, 4° C., 39 Days): 0.00 mg/mL
Creatinine in solution (HPLC assay) (pH 3.0, 4° C., 3 day): 0.0 mg/mL
Creatinine in solution (HPLC assay) (pH 3.0, 4° C., 10 days): 0.0 mg/mL
Creatinine in solution (HPLC assay) (pH 3.0, 4° C., 21 days): 0.0 mg/mL
Creatinine in solution (HPLC assay) (pH 3.0, 4° C., 60 days): 0.00 mg/mL
Creatinine in solution (HPLC assay) (pH 3.0, 4° C., INITIAL): 0.0 mg/mL
Creatinine in solution (HPLC assay) (pH 3.0, 25° C., 39 Days): 0.00 mg/mL
Creatinine in solution (HPLC assay) (pH 3.0, 25° C., 3 day): 0.0 mg/mL
Creatinine in solution (HPLC assay) (pH 3.0, 25° C., 10 days): 0.0 mg/mL
Creatinine in solution (HPLC assay) (pH 3.0, 25° C., 21 days): 0.0 mg/mL
Creatinine in solution (HPLC assay) (pH 3.0, 25° C., 60 days): 0.00 mg/mL
Creatinine in solution (HPLC assay) (pH 3.0, 25° C., INITIAL): 0.0 mg/mL
Creatinine in solution (HPLC assay) (pH 3.0, 40° C., 39 Days): 0.00 mg/mL
Creatinine in solution (HPLC assay) (pH 3.0, 40° C., 3 day): 0.0 mg/mL
Creatinine in solution (HPLC assay) (pH 3.0, 40° C., 10 days): 0.0 mg/mL
Creatinine in solution (HPLC assay) (pH 3.0, 40° C., 21 days): 0.0 mg/mL
Creatinine in solution (HPLC assay) (pH 3.0, 40° C., 60 days): 0.00 mg/mL
Creatinine in solution (HPLC assay) (pH 3.0, 40° C., INITIAL): 0.0 mg/mL
Creatinine in solution (HPLC assay) (pH 7.0, 4° C., 39 Days): 0.00 mg/mL
Creatinine in solution (HPLC assay) (pH 7.0, 4° C., 3 day): 0.0 mg/mL
Creatinine in solution (HPLC assay) (pH 7.0, 4° C., 10 days): 0.0 mg/mL
Creatinine in solution (HPLC assay) (pH 7.0, 4° C., 21 days): 0.0 mg/mL
Creatinine in solution (HPLC assay) (pH 7.0, 4° C., 60 days): 0.00 mg/mL
Creatinine in solution (HPLC assay) (pH 7.0, 4° C., INITIAL): 0.0 mg/mL
Creatinine in solution (HPLC assay) (pH 7.0, 25° C., 39 Days): 0.00 mg/mL
Creatinine in solution (HPLC assay) (pH 7.0, 25° C., 3 day): 0.0 mg/mL
Creatinine in solution (HPLC assay) (pH 7.0, 25° C., 10 days): 0.0 mg/mL
Creatinine in solution (HPLC assay) (pH 7.0, 25° C., 21 days): 0.0 mg/mL
Creatinine in solution (HPLC assay) (pH 7.0, 25° C., 60 days): 0.00 mg/mL
Creatinine in solution (HPLC assay) (pH 7.0, 25° C., INITIAL): 0.0 mg/mL
Creatinine in solution (HPLC assay) (pH 7.0, 40° C., 39 Days): 0.00 mg/mL
Creatinine in solution (HPLC assay) (pH 7.0, 40° C., 3 day): 0.0 mg/mL
Creatinine in solution (HPLC assay) (pH 7.0, 40° C., 10 days): 0.0 mg/mL
Creatinine in solution (HPLC assay) (pH 7.0, 40° C., 21 days): 0.0 mg/mL
Creatinine in solution (HPLC assay) (pH 7.0, 40° C., 60 days): 0.00 mg/mL
Creatinine in solution (HPLC assay) (pH 7.0, 40° C., INITIAL): 0.0 mg/mL
Prepared substance remaining in solution (HPLC assay) (pH 3): 0.247 mg/ml mg/mL
Prepared substance remaining in solution (HPLC assay) (pH 7): 0.226 mg/ml mg/mL
pH of the solution (prepared at pH 3.0, 4° C., 39 Days): 3.1
pH of the solution (prepared at pH 3.0, 4° C., 60 days): 3.1
pH of the solution (prepared at pH 3.0, 4° C., INITIAL): 3.0
pH of the solution [1]: 3.1
pH of the solution [2]: 3.1
pH of the solution [3]: 3.0
pH of the solution [4]: 3.0
pH of the solution [5]: 3.0
pH of the solution [6]: 3.0
pH of the solution (prepared at pH 7.0, 4° C., 39 Days): 5.2
pH of the solution (prepared at pH 7.0, 4° C., 60 days): 5.2
pH of the solution (prepared at pH 7.0, 4° C., INITIAL): 7.0
pH of the solution (prepared at pH 7.0, 25° C., 39 Days): 5.3
pH of the solution (prepared at pH 7.0, 25° C., 60 days): 5.3
pH of the solution (prepared at pH 7.0, 25° C., INITIAL): 7.0
pH of the solution [7]: 5.5
pH of the solution [8]: 5.5
pH of the solution [9]: 7.0
SMILES: CN(CCOP(=O)(O)O)C(=N)N [Creatinol-O-Phosphate, Creatinol-O-phosphate]

SMILES: CN(CC(=O)O)C(=N)N.O [Creatine Monohydrate, reference compound]
Creatinine in solution (HPLC assay) (pH 3.0, 25° C., 39 Days): 0.154 mg/mL
Creatinine in solution (HPLC assay) (pH 3.0, 25° C., 3 day): 0.026 mg/mL
Creatinine in solution (HPLC assay) (pH 3.0, 25° C., 10 days): 0.072 mg/ml mg/mL
Creatinine in solution (HPLC assay) (pH 3.0, 25° C., 21 days): 0.111 mg/mL
Creatinine in solution (HPLC assay) (pH 3.0, 25° C., 60 days): 0.167 mg/mL
Creatinine in solution (HPLC assay) (pH 3.0, 25° C., INITIAL): 0.000 mg/mL
Creatinine in solution (HPLC assay) (pH 3.0, 40° C., 39 Days): 0.186 mg/mL
Creatinine in solution (HPLC assay) (pH 3.0, 40° C., 3 day): 0.125 mg/Ml mg/mL
Creatinine in solution (HPLC assay) (pH 3.0, 40° C., 10 days): 0.177 mg/ml mg/mL
Creatinine in solution (HPLC assay) (pH 3.0, 40° C., 21 days): 0.186 mg/mL
Creatinine in solution (HPLC assay) (pH 3.0, 40° C., 60 days): 0.187 mg/mL
Creatinine in solution (HPLC assay) (pH 3.0, 40° C., INITIAL): 0.000 mg/mL
Creatinine in solution (HPLC assay) (pH 7.0, 40° C., 39 Days): 0.068 mg/mL
Creatinine in solution (HPLC assay) (pH 7.0, 40° C., 3 day): 0.008 mg/mL
Creatinine in solution (HPLC assay) (pH 7.0, 40° C., 60 days): 0.101 mg/mL
Creatinine in solution (HPLC assay) (pH 7.0, 40° C., INITIAL): 0.000 mg/mL
Fraction converted to creatinine (39 days, pH 3.0, stored at 40° C.): 74%
Fraction converted to creatinine (39 days, pH 7.0, stored at 40° C.): 28%
Fraction converted to creatinine (pH 3.0, stored at 4° C.): 62%
pH of the solution [1]: 3.4
pH of the solution [2]: 3.4
pH of the solution [3]: 3.0
pH of the solution [4]: 3.4
pH of the solution [5]: 3.4
pH of the solution [6]: 3.0
pH of the solution [7]: 7.4
pH of the solution [8]: 7.4
pH of the solution [9]: 7.0
